Values quoted from earlier work, collected in US20260108637A1, “USES OF PSMA-TARGETING AND TSPO-TARGETING COMPOUNDS FOR EVALUATION OF INJURIES IN THE PERIPHERAL NERVOUS SYSTEM” (The Johns Hopkins University, priority 2023, published 2026).

Biological target: GCPII (Homo sapiens, UniProt Q04609)
Conditions: described previously, Chen et al., 2009

Sequence of GCPII (Q04609 whole entry, species assumed): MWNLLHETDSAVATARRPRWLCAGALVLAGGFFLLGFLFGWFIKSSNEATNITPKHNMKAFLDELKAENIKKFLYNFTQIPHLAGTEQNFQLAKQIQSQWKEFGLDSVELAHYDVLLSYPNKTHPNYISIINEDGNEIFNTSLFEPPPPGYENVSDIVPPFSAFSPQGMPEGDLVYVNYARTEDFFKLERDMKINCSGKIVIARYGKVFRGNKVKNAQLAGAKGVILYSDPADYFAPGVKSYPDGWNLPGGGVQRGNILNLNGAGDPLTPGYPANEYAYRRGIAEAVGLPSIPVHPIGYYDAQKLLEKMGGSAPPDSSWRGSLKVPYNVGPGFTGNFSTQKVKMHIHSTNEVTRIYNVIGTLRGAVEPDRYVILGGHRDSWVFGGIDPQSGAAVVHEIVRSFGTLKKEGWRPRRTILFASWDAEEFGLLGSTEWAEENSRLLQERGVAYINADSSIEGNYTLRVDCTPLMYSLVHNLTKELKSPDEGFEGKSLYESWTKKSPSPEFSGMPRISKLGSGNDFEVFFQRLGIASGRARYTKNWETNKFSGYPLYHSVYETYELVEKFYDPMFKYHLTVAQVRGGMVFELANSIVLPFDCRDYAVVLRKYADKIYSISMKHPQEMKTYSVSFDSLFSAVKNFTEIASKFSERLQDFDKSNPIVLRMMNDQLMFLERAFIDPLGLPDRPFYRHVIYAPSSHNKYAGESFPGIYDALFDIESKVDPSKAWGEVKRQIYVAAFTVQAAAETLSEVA

## CC1(C)C(/C=C/C2=C(Oc3ccc(S(=O)(=O)O)cc3)C(=C/C=C3/N(CCCCS(=O)(=O)O)c4ccc(S(=O)(=O)O)cc4C3(C)C)/CCC2)=[N+](CCCCCC(=O)NCCCCC(NC(=O)CCCCCCC(=O)NCCCC[C@H](NC(=O)N[C@@H](CCC(=O)O)C(=O)O)C(=O)O)C(=O)O)c2ccc(S(=O)(=O)[O-])cc21 (stereo partly shown) [YC27]
  Ki: 0.37 nM
